Source: patent US7705065B2, “Photoinitiator functionalized with alkoxy groups” (Xerox Corporation, priority 2007, dated 2010)

Assay: Solubility of about 10 wt % photoinitiator in alkoxy-containing curable monomers
Type: physicochemical
Settings: about 10 wt % solutions in each of SR9003, SR209, SR399LV and SR454; about room temperature (approximately 22° C. to 27° C.)
Text: The following monomers were used for testing: 1) SR9003 (propoxylated neopentyl glycol diacrylate), 2) SR209 (tetraethylene glycol dimethacrylate), 3) SR399LV (low viscosity dipentaerythritol pentacrylate esters), and 4) SR454 (ethoxylated trimethylolpropane triacrylate esters).

solubility in monomers: insoluble
Structure (SMILES): CC(C)(O)C(=O)c1ccc(OCCO)cc1 [IRGACURE® 2959, 4-(2-hydroxyethyloxy)phenyl-(2-hydroxy-2-propyl) ketone]
